The results in this text go back to article PMC12040169 (PLOS Biology, 2025).

Each structure is given as a SMILES string.

As usually defined, the viability is a read-out of living cells in per cent, often relative to untreated cells.

The nature of the series: in vitro. To be noted: human, hela cells, % viability.
With `Cc1cccc(NC(=O)CC(C(=O)O)N2CCOCC2)c1` (centres unmarked) [CBK266925], the viability at 28.5 h, 10 µM amounted to 96.3%.
Consider `CCOC(=O)c1cnc(Nc2nc3ccccc3o2)nc1CN1CCN(c2ccccc2)CC1` [CBK266927], for which the viability at 28.5 h, 10 µM came to 93.1%.
The figure for `CC(NS(=O)(=O)c1ccccc1)C(=O)Nc1ccc(S(N)(=O)=O)cc1` (centres unmarked) [CBK266929] is 110%.
With `COc1ccc(S(=O)(=O)NCCO)cc1-c1nnc2c3ccccc3c(C)nn12` [CBK266933] the figure was 91.9%; with `Cc1ccc([N+](=O)[O-])cc1S(=O)(=O)Nc1ccc(O)c(Sc2nc3ccccc3s2)c1` [CBK266936], 97.6%.
For the compound `Cc1ccccc1NC(=O)Cn1c(=O)n(CC(=O)Nc2ccccc2C)c2ccccc21` [CBK266938], the viability at 28.5 h, 10 µM was 101%.
Regarding `CNS(=O)(=O)c1ccc(NC(=O)Nc2ccc([N+](=O)[O-])cc2OC)cc1` [CBK266939], the viability at 28.5 h, 10 µM was 93.1%.
For the compound `Cc1ccc(C(C)C)c(OCCSc2nc3c(N)ncnc3[nH]2)c1` [CBK266941], the viability at 28.5 h, 10 µM is 94.3%.
With `COC(=O)c1c(NC(=S)Nn2cnnc2)sc2c1CCC(C)C2` (centres unmarked) [CBK266942] the figure was 91.6%; with `COC(=O)c1c(NC(=S)NCc2cccs2)sc(C)c1-c1ccccc1` [CBK266943], 97%; with `CCOc1ccc(NC(=O)Nc2ccc(CC(=O)O)cc2)cc1` [CBK266945], 112%.
With `CN(CC(=O)N1CCOCC1)S(=O)(=O)c1ccc2ccccc2c1` [CBK266946] the figure was 98.5%; with `COCCCNC(=S)Nc1ccc(N2CCOCC2)c2nonc12` [CBK266947], 88.8%; with `Oc1ccc(-c2n[nH]cc2-c2cnn(-c3ccccc3)c2)c(O)c1O` [CBK266948], 104%.
In the case of `CN1CCN(c2nc(NCCNc3ccc([N+](=O)[O-])cc3)c3ccccc3n2)CC1` [CBK266949], the viability at 28.5 h, 10 µM amounted to 77.5%.
Regarding `CCn1cc(C(C)NC(=S)Nc2ccc(OC)cc2OC)c(C)n1` (centres unmarked) [CBK266950], the viability at 28.5 h, 10 µM came to 90%.
With `CCOC(=O)c1c(NC(=S)NCc2ccccn2)sc2c1CCCCC2` [CBK266954] the figure was 106%; with `O=C(O)CC(NCc1ccccc1)C(=O)Nc1cccc(F)c1` (centres unmarked) [CBK266956], 92.3%.
With `Cc1cnn(CCCNC(=S)Nc2ccc(S(N)(=O)=O)cc2)c1` [CBK266957] the figure was 90.7%; with `COc1ccc(Cl)cc1NC(=O)Nc1ccc(C(=O)N2CCOCC2)cc1` [CBK266958], 87.1%.
With `CN(C)CCNC(=O)C(=O)Nc1ccc(Cl)cc1` [CBK266965] the figure was 107%.
Regarding `CCC(C)c1ccc(NC(S)=NCc2ccccn2)cc1` (centres unmarked) [CBK266966], the viability at 28.5 h, 10 µM is 89.2%.
With `Cc1cccc(C)c1OCC(=O)Nc1ccc(S(=O)(=O)N2CCOCC2)cc1` [CBK266967], the viability at 28.5 h, 10 µM worked out at 94.1%.
The figure for `Cc1ccccc1NC(=O)CC(C(=O)O)N1CCOCC1` (centres unmarked) [CBK266969] is 113%; for `O=C(O)C1CCCN1S(=O)(=O)c1ccc2[nH]c(=O)c(=O)[nH]c2c1` (centres unmarked) [CBK266971] it is 88.9%; for `NS(=O)(=O)c1ccc(NC(=S)NNC(=O)c2ccc(Br)o2)cc1` [CBK266972] it is 95.8%.
Consider `CC(C)(C)NS(=O)(=O)c1ccc(CCC(=O)Nc2ccc(F)c(Cl)c2)cc1` [CBK266974], for which the viability at 28.5 h, 10 µM worked out at 89.9%.
For `COc1ccc(CNC(=S)Nc2cccc(C(F)(F)F)c2)cc1OC` [CBK266977], the viability at 28.5 h, 10 µM was 101%.
Take `CCNS(=O)(=O)c1ccc(NC(=S)Nc2ccc(S(N)(=O)=O)cc2)cc1` [CBK266978]: the viability at 28.5 h, 10 µM was 99.5%.
With `c1ccc2c(c1)nc(-c1cscn1)n2Cc1ccc(-c2nnn[nH]2)cc1` [CBK266979] the figure was 96.6%.
With `O=C(O)CNS(=O)(=O)c1ccc(Cl)c(Cl)c1` [CBK266981] the figure was 86.2%; with `Fc1ccc(NC(=S)NNC(=S)Nc2cccc3ccccc23)c(F)c1` [CBK266982], 89.8%; with `COc1ccc(C(C)C)cc1S(=O)(=O)NCCc1c(C)[nH]c2c(Cl)cccc12` [CBK266983], 94.5%.
As to `CC(NS(=O)(=O)c1ccc(Cl)cc1)C(=O)Nc1ccccc1Sc1ccccc1` (centres unmarked) [CBK266984], the viability at 28.5 h, 10 µM amounted to 98.4%.
With `Cc1c(C(C)NC(=O)Nc2ccc(F)cc2F)cnn1C` (centres unmarked) [CBK266986] the figure was 95.1%.
`Nn1c(CSc2ccccn2)nnc1CSc1ccccn1` [CBK266987]: the viability at 28.5 h, 10 µM worked out at 90.8%.
The figure for `Cc1ccc(S(=O)(=O)Nc2nc3ccc(S(=O)(=O)N4CCOCC4)cc3s2)cc1` [CBK266988] is 88.8%; for `CCc1cc(C(=O)OC)c(NC(=O)CC2NCCNC2=O)s1` (centres unmarked) [CBK266990] it is 97.6%.
With `O=[N+]([O-])c1ccc(S(=O)(=O)CC(CN2CCCC2)N2CCCC2)cc1` (centres unmarked) [CBK266991] the figure was 112%; with `Cc1nc(SCc2cccc(C(=O)O)c2)nc2c1CCCC2` [CBK266997], 87.3%.
The figure for `Cc1cc(C(=O)O)ccc1-c1ccc(/C=C/c2[nH]c(=O)[nH]c(=O)c2[N+](=O)[O-])o1` [CBK266998] is 97.3%; for `COc1ccc(CCNC(=S)n2cc(C)cn2)cc1OC` [CBK267001] it is 89%; for `Cc1ccc(NC(=O)Cn2cnc3c(=O)n(C)c(=O)n(C)c32)c(O)c1` [CBK267002] it is 102%.
Take `CCOC(=O)COc1c(Cl)cc(/C=C/c2[nH]c(=O)[nH]c(=O)c2[N+](=O)[O-])cc1Cl` [CBK267003]: the viability at 28.5 h, 10 µM is 91.2%.
The figure for `O=C(Nc1cc(Cl)ccc1Cl)C1CN(S(=O)(=O)c2ccccc2)CCN1S(=O)(=O)c1ccccc1` (centres unmarked) [CBK267004] is 88.7%; for `COc1ccc(C)cc1N(CC(=O)Nc1ccc(F)c(F)c1)S(C)(=O)=O` [CBK267006] it is 96.5%; for `CC(=O)Nc1ccc(S(=O)(=O)N2CCN(c3cc4[nH]c(=O)[nH]c4cc3[N+](=O)[O-])CC2)cc1` [CBK267013] it is 97.7%.
With `O=C(NCc1ccccn1)Nc1ccc2c(c1)OCO2` [CBK267014] the figure was 97.1%; with `CN(CC(=O)N1CCN(Cc2ccc3c(c2)OCO3)CC1)S(=O)(=O)c1ccc2ccccc2c1` [CBK267016], 108%.
With `O=S(=O)(c1ccc2ccccc2c1)N1CCN(CCCOc2ccccc2Cl)CC1` [CBK267018] the figure was 106%.
`Cc1cccc(C)c1NC(=O)CC(C(=O)O)N(C)C` (centres unmarked) [CBK267022]: the viability at 28.5 h, 10 µM was 90.9%.
The figure for `COc1ccc(C)cc1NC(=S)NCc1cnn(C)c1` [CBK267025] is 106%; for `CCOc1ccccc1NC(=O)NCc1cccnc1` [CBK267026] it is 107%.
The figure for `Nc1ncn(Cc2ccccc2)c2nc(SCC(=O)O)nc1-2` [CBK267027] is 99.2%; for `COC(=O)c1c(NC(=S)NCc2cccnc2)sc(C)c1C` [CBK267029] it is 89.2%; for `Cc1cc(=O)oc2cc(NC(=S)NNC(=O)C(C)Oc3ccc4c(c3)CCC4)ccc12` (centres unmarked) [CBK267031] it is 91.4%.
For `CCn1cc(NC(=S)Nc2sc3c(c2C(=O)OC)CCC(C)C3)c(C(N)=O)n1` (centres unmarked) [CBK267032], the viability at 28.5 h, 10 µM worked out at 105%.
Take `O=C(O)Cn1nnc(-c2ccc(OCc3cccc(C(F)(F)F)c3)cc2)n1` [CBK267034]: the viability at 28.5 h, 10 µM worked out at 97.7%.
For `Cn1c(SCC(=O)Nc2ccc(F)cc2)nnc1-c1cccnc1` [CBK267035], the viability at 28.5 h, 10 µM was found to be 94.7%.
With `O=C(O)c1ccc(CNC(=S)Nc2ccc([N+](=O)[O-])cc2)cc1` [CBK267037] the figure was 92.9%.
The figure for `CCn1cc(CN(C)C(=S)Nc2cccc(C(C)=O)c2)c(C)n1` [CBK267040] is 106%.
`COc1cc([N+](=O)[O-])ccc1NC(=S)Nc1cccc(S(=O)(=O)N2CCOCC2)c1` [CBK267042]: the viability at 28.5 h, 10 µM was determined as 96.9%.
On to `CC(=O)c1c(C)oc2ccc(N(C(=O)c3cccc([N+](=O)[O-])c3)S(=O)(=O)c3cccc4cccnc34)cc12` [CBK267044], for which the viability at 28.5 h, 10 µM was found to be 70.2%.
The figure for `O=S(=O)(Nc1ncccn1)c1ccc(NC(=S)Nc2ccc3c(c2)OCO3)cc1` [CBK267046] is 89%; for `COC(=O)c1cc(C)sc1NC(=S)Nc1ccccc1[N+](=O)[O-]` [CBK267047] it is 99.9%; for `S=C(NCCc1ccccc1)Nc1ccc2c(c1)OCCO2` [CBK267048] it is 110%.
Regarding `Cc1cccnc1NC(=S)Nc1ccc(S(N)(=O)=O)cc1` [CBK267049], the viability at 28.5 h, 10 µM turned out to be 111%.
`CC(C)N(Cc1nc(-c2ccc(Cl)cc2)no1)S(=O)(=O)c1cccc([N+](=O)[O-])c1` [CBK267050]: the viability at 28.5 h, 10 µM worked out at 83.6%.
For the compound `COC(=O)c1c(NC(=S)NNC(=O)c2nn(C)c(C)c2Br)sc2c1CCC(C)C2` (centres unmarked) [CBK267052], the viability at 28.5 h, 10 µM came out at 93.9%.
Consider `COC(=O)c1c(NC(=S)Nc2cccc(S(=O)(=O)N3CCOCC3)c2)sc2c1CCC2` [CBK267054], for which the viability at 28.5 h, 10 µM came to 93.8%.
With `Cc1cc(=O)oc2cc(NC(=S)NNC(=O)C(C)Sc3nc4ccccc4s3)ccc12` (centres unmarked) [CBK267056] the figure was 102%.
`COC(=O)c1ccc(N/C(C)=C/C(=O)c2ccc(C)o2)cc1` [CBK267057]: the viability at 28.5 h, 10 µM is 115%.
For `COc1ccc(NC(=O)Nc2ccccc2C(N)=O)cc1OC` [CBK267061], the viability at 28.5 h, 10 µM is 94.1%.
`O=C(O)Cc1ccc(NC(=S)Nc2cccc(Cl)c2Cl)cc1` [CBK267064]: the viability at 28.5 h, 10 µM stood at 107%.
Regarding `O=C(CC(NCCO)C(=O)O)Nc1cccc(C(F)(F)F)c1` (centres unmarked) [CBK267065], the viability at 28.5 h, 10 µM came out at 109%.
Regarding `Cn1cc(I)c(C(=O)NNC(=S)Nc2ccc(S(N)(=O)=O)cc2)n1` [CBK267066], the viability at 28.5 h, 10 µM came to 106%.
In the case of `O=[N+]([O-])c1ccc(S(=O)(=O)CC(CN2CCCCC2)N2CCCCC2)cc1` (centres unmarked) [CBK267070], the viability at 28.5 h, 10 µM came to 100%.
